The test system of the data set is mouse liver microsomes, LC-MS/MS, half-life. As to the kind of experiment: Inhibitors of 12-hLO: Mouse Liver Microsome Stability Profiling. Particulars: at 1 µM; active compounds read high. From the text: Assay Provider: Holman, T.R., University of California, Santa Cruz Grant #: MH08128301 Screening Center PI: Austin, C.P. Screening Center: NIH Chemical Genomics Center [NCGC] Human lipoxygenase 12hLO is a member of the closely related lipoxygenase family of enzymes which catalyze the site-specific oxidation of arachidonic acid to various hormone precursor molecules and as such is a candidate for drug development in a variety of disease areas, such as cancer and inflammation. After qHTS, hits were confirmed in follow-up assays, and leads were optimized through SAR. The resulting lead compound was further characterized through a battery ADME-Tox experiments. These assay and this assay describes its mouse liver microsome stability. Mouse liver microsomes are created through broken up endoplasmic reticulum from mouse liver. These liver microsomes contain many drug metabolizing enzymes, such as Cytochome P-450s and flavin-containing monooxygenases. Because metabolism is major way of drug clearance, this is an important result.
1uM of compound in incubated in mouse liver microsome; the reference compound is ketanserin. Compounds are incubated at 37 degrees C for different time periods: 0, 5, 15, 30, 45, and 60 minutes. Samples are analyzed with LC-MS/MS.
(In general: Liver microsomes are vesicles of endoplasmic reticulum, rich in cytochrome P450 enzymes.)

This note sets out measurements from PubChem BioAssay AID504605 (National Center for Advancing Translational Sciences (NCATS), 2011).

As a reminder, the half-life is the time needed for the level to fall by half in the phase considered. Consider `CC(=O)NC(c1cccs1)c1cc(Br)c2cccnc2c1O` (stereo unspecified), for which the half-life was 9 min.
